From US6337340B1, “Carboxylic acids and isosteres of heterocyclic ring compounds having multiple heteroatoms for vision and memory disorders” (GPI NIL Holdings, Inc., priority 1998, dated 2002)
Marks after values point to notes of the source that are not given here.

Experiments:
[1] = Clearance (Table V comments); type: in vitro ADME
[2] = tested on: retinal ganglion cell axons; assay: Protection of retinal ganglion cell axons from degeneration following optic nerve transection (Table V); type: in vivo, rat; details: ± SEM
Description: Efficacy of representative compounds from different immunophilin ligand series in protecting retinal ganglion cell axons from degeneration following optic nerve transection is set forth in Table V.

[3] = target: FKBP12 (Homo sapiens, UniProt P62942); assay: Ki Test Procedure: inhibition of peptidyl-prolyl isomerase (rotamase) activity, chymotrypsin-coupled assay; type: biochemical; details: apparent Ki; read-out: Ki rotomase
Description: The inhibition of the prolyl peptidyl cis-trans isomerase activity of FKBP may be measured as an indicator of this affinity.
These values are obtained as apparent Ki's.
The cis-trans isomerization of an alanine-proline bond in a model substrate, N-succinyl-Ala-Ala-Pro-Phe-p-nitroanilide, is monitored spectrophotometrically in a chymotrypsin-coupled assay, which releases para-nitroanilide from the trans form of the substrate. The inhibition of this reaction caused by the addition of different concentrations of inhibitor is determined, and the data is analyzed as a change in first-order rate constant as a function of inhibitor concentration to yield the apparent Ki values.
In a plastic cuvette are added 950 ml of ice cold assay buffer (25 mM HEPES, pH 7.8, 100 mM NaCl), 10 ml of FKBP (2.5 mM in 10 mM Tris-Cl pH 7.5, 100 mM NaCl, 1 mM dithiothreitol), 25 ml of chymotrypsin (50 mg/ml in 1 mM HCl) and 10 ml of test compound at various concentrations in dimethyl sulfoxide. The reaction is initiated by the addition of 5 ml of substrate (succinyl-Ala-Phe-Pro-Phe-para-nitroanilide, 5 mg/ml in 2.35 mM LiCl in trifluoroethanol).
The absorbance at 390 nm versus time is monitored for 90 seconds using a spectrophotometer and the rate constants are determined from the absorbance versus time data files.

[4] = tested on: aged rodents; assay: Morris watermaze spatial learning and memory in aged rodents; type: in vivo, C57BL/6N-Nia mice; details: daily 10 mg/kg
Description: The Morris watermaze is widely used for assessing spatial memory formation and retention in experimental animals. The test depends on the animal's ability to utilize spatial visual information in order to locate a submerged escape platform in a water tank. It is important that the tank itself be as devoid of specific visual features as possible—thus, it is always circular in shape, the sides are kept smooth and in uniform dull colors, and the water is rendered opaque with nontoxic watercolor pigment or powdered milk. This is to ensure that the animal navigates only by the use of more distant visual cues, or by the use of intra-maze cues specifically provided by the experimenter.
The animals' path, speed, and swim time are tracked with a ceiling camera for later computerized analysis. Over the course of several successive trials, spatial learning can therefore be defined as a drop of distance swum, or time elapsed, from placement in the tank until escape onto the invisible platform. […]
Retention testing began after 3 weeks of dosing using the same methods as the acquisition phase. Swim Distances (cm) were analyzed in a 7×5 ANOVA including Groups and Blocks (1-5) as factors in the analysis, treating Blocks as a repeated measure.

[5] = tested on: retinal ganglion cells and optic nerve axons; assay: In vivo retinal ganglion cell and optic nerve axon tests after optic nerve transection; design: species or system Sprague Dawley rats; details: 90 days after transection
Description: A second groups received the same neuroimmunogphilin FKBP ligand dose for 28 days.
All eyes and optic nerves stumps were removed.

[6] = tested on: retinal ganglion cells and optic nerve axons; assay: as above; design: species or system Sprague Dawley rats; details: for ON axon Count: axonal density multiplied by ON area; for Distal optic nerve myelin basic protein Density: shrinkage: cross sectional area vs sham
[7] = tested on: retina; assay: Streptozotocin induced diabetes, retinal neovascularization and neuron loss; type: in vivo
[8] = tested on: streptozotocin-induced diabetic rat; assay: Streptozotocin-induced diabetic sensory neuropathy, hot plate and tail flick; type: in vivo, Male Wistar rats; details: lesioned animals treated for 6 weeks at 10 mg/kg s.c.
Procedure: The procedure involved using Male Wistar rats which were given a single injection of streptozotocin (65 mg/kg i.v.). Blood glucose levels were determined weekly for the first three weeks and on the last week of the experiment. Animals were evaluated weekly for signs of sensory neuropathy using the conventional hot plate and tail flick apparatus test procedures.

[9] = tested on: retinal ganglion cells; assay: Retinal ischemia by raised intraocular pressure; type: in vivo, rat
Description: Retinal ganglion cells were retrogradely labeled in adult rate by bilateral injection of fluorogold in their lateral geniculate nuclei. Labeled ganglion cells in the normal rat retina appear as white profiles against the dark background (FIG. 1A). Complete retinal ischemia was produced by infusing normal saline solution into the retinal vitreous cavity of each eye until the intraocular pressure exceeded arterial blood pressure. 28 days after the ischemic episode extensive degeneration of retinal ganglion cell was evidenced by massive reduction in the density of fluorogold labeled cells (FIG. 1B).
Optic nerves from vehicle treated cases examined 28 days after a 1 hour retinal ischemic episode are characterized by a decreased density of optic nerve axons and the appearance of numerous degenerating myelin figures (bright white filled circles).

[10] = GPI 1046 first 14 days, 90 days after transection
[11] = ONT, GPI 1046 14 days, 90 days after transection
[12] = ONT, GPI 1046 28 days, 90 days after transection
[13] = 28 day treatment beginning 8 weeks after onset of streptozotocin induced diabetes

FKBP12, sequence (P62942 whole entry, species assumed): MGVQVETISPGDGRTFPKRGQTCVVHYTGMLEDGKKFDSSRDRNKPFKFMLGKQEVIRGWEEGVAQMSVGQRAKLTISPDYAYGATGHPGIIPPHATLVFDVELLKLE

O=C(SCCCc1ccccc1)[C@@H]1CCCN1C(=O)NC12CC3CC(CC(C3)C1)C2 [B]
Clearance [1]: 7 µL/min
RT97+ RGC axon density 11 days after ON transection (36 ON axon rescued) [2]: 100.0% ± 5.2% SEM

O=C(SCCCc1ccccc1)[C@@H]1CCCN1S(=O)(=O)Cc1ccccc1 [C]
Clearance [1]: 31.1 µL/min
RT97+ RGC axon density 11 days after ON transection (36 ON axon rescued) [2]: 60.4% ± 3.1% SEM

O=C(OCCCCc1ccccc1)[C@@H]1CCCCN1S(=O)(=O)Cc1ccccc1 [D]
RT97+ RGC axon density 11 days after ON transection (36 ON axon rescued) [2]: 58.4% ± 6.4% SEM

CCC(C)(C)C(=O)C(=O)N1CCCCC1C(=O)OC(CCc1ccccc1)CCc1ccccc1 (stereo not shown) [E]
Clearance [1]: 41.8 µL/min
RT97+ RGC axon density 11 days after ON transection (36 ON axon rescued) [2]: 56.6% ± 9.4% SEM

CCC(C)(C)C(=O)C(=O)N1CCS[C@H]1C(=O)OCCCc1cccnc1 [F]
RT97+ RGC axon density 11 days after ON transection (36 ON axon rescued) [2]: 55.1% ± 5.9% SEM

CCC(C)(C)C(=O)C(=O)N1CCC[C@H]1C(=O)CCCCc1cccnc1 [J]
Clearance [1]: 1.5 µL/min

CCC(C)(C)C(=O)C(=O)N1CCCC[C@H]1C(=O)SCCC(c1ccccc1)c1ccccc1 [K]
Clearance [1]: 4.5 µL/min

CCC(C)(C)C(=O)C(=O)N1CCC[C@H]1C(=O)O [L]
Clearance [1]: 5.2 µL/min
RT97+ RGC axon density 11 days after ON transection (36 ON axon rescued) [2]: 7.8% ± 3.0% SEM

CCC(C)(C)C(=O)C(=O)N1CCC[C@H]1C(=O)SCCC(c1ccccc1)c1ccccc1 [M]
Clearance [1]: 12.5 µL/min
RT97+ RGC axon density 11 days after ON transection (36 ON axon rescued) [2]: −6.3% ± 3.9% SEM

CN(C)C(=O)N1CCC[C@H]1C(=O)SCCCc1ccccc1 [N]
Clearance [1]: 21.9 µL/min

GPI 1046
Ki [3]: 7.5 nM
Clearance [1]: 63.8 µL/min
spatial memory performance (swim distance, retention testing) ([4]; aged impaired mice, retention testing after 3 weeks of dosing): significantly enhanced spatial memory performance
difference between young and aged impaired GPI-1046 treated groups, retention phase ([4]; F1.69=3.09, P=0.08): no longer any statistically significant difference
preservation of axons of protected neurons in the proximal stump ([5]; Example 14, 10 mg/kg/day s.c. 28 days, RT97 immunohistochemistry): preserved the axons of virtually all protected neurons
fascicular pattern of myelin labeling in the distal stump ([5]; GPI 1046 first 28 days): dramatic protection of the fascicular pattern of myelin labeling
pattern of myelin degeneration in the proximal stump (myelin basic protein immunohistochemistry) ([5]; GPI 1046 first 28 days): dramatic preservation of the fascicular staining pattern
% surviving RGCs with ON axons ([5]; ONT, GPI 1046 28 days): 81.4%
ON head area (% sham) ([5]; ONT, GPI 1046 28 days): 95%*
Spared RGC population ([5]; ONT, GPI 1046 28 days): 28,096*
increased ON axon density ([5]; ONT, GPI 1046 28 days, adjusted for optic nerve diameter): 5.0X
Distal optic nerve myelin basic protein Density: myelin preservation ([5]; ONT, GPI 1046 28 days, cross sectional area multiplied by myelin density): 99% myelin % myelin preservation
Proximal optic nerve myelin basic protein Density ([5]; ONT, GPI 1046 28 days, ± SEM): 70 ± 6.3 SEM % recovery
ganglion cells population spared (perikaryal neuroprotection) ([6]; Example 14, 10 mg/kg/day s.c. 28 days, sacrificed 90 days after transection): 25%
density of myelin in the distal stump [6, 10]: slightly increase the density of myelin
pattern of myelin degeneration in the proximal stump (myelin basic protein immunohistochemistry) [6, 10]: did not alter the pattern of myelin degeneration
shrinkage of the distal stump [6, 10]: did not protect against shrinkage
cross sectional shrinkage of the distal stump ([6]; GPI 1046 first 28 days, 90 days after transection): prevented cross sectional shrinkage
% RGCs Rescued [6, 11]: 5.3%
% surviving RGCs with ON axons [6, 11]: 33.6%
ON head area (% sham) [6, 11]: 76%
Spared RGC population [6, 11]: 20,275
increased ON axon density ([6]; ONT, GPI 1046 14 days, 90 days after transection, adjusted for optic nerve diameter): 1.5X
ON axon Count [6, 11]: 6820
Distal optic nerve myelin basic protein Density: myelin loss ([6]; ONT, GPI 1046 14 days, 90 days after transection, cross sectional area multiplied by myelin density): 47% loss
Distal optic nerve myelin basic protein Density: shrinkage [6, 11]: 33% shrinkage
ON Axon density ([6]; ONT, GPI 1046 14 days, 90 days after transection, mean ± SEM RT97 labeled axons in 200 μm × 200 μm region): 569 ± 23
Proximal optic nerve myelin basic protein Density ([6]; ONT, GPI 1046 14 days, 90 days after transection, ± SEM): 1.6 ± 3.0 SEM % recovery
RGC Counts ([6]; ONT, GPI 1046 28 days 10 mg/kg/day sc, 90 days after transection, mean density ± SEM of Fluoro-gold labeled RGC in 400 μm × 400 μm gridfields): 67.9 ± 5.8
ON axon Count [6, 12]: 22,861*
Distal optic nerve myelin basic protein Density: shrinkage [6, 12]: 56% less % less shrinkage
protection of optic nerve axons ([6]; proximal stump, GPI 1046 first 14 days after transection, 90 days): 5.3%
loss of neurons in the INL and GCL ([7]; 28 day treatment beginning 8 weeks after onset of diabetes, vs streptozotocin/vehicle controls): appeared to decrease the loss of neurons in both the INL and GCL
neovascularization in the PR, ONL, OPL and INL [7, 13]: reduced neovascularization
neuronal loss in the ONL [7, 13]: did not appear to protect against neuronal loss in the ONL
hot plate and tail flick latency [8]: improvement in latency
RT97+ RGC axon density 11 days after ON transection (36 ON axon rescued) [2]: 60.5% ± 3.9 SEM
protection of fluorogold labeled retinal ganglion cells ([9]; 10 mg/kg s.c. 1 hour prior and 10 mg/kg/day for next four days, 28 days after ischemic episode): noticeable protection of a large proportion of the vulnerable ganglion cell population
density of degenerating myelin figures in optic nerve ([9]; 28 days after 1 hour retinal ischemic episode): dramatically decreased the density of degenerating myelin figures
protection of optic nerve axons from ischemic degeneration ([9]; 28 days after 1 hour retinal ischemic episode, toluidine blue staining): protected the majority of optic nerve axons from degeneration
